Assays:
EP3α = target: T1, EP3α (Mus musculus, UniProt P30557); experiment: Binding assay using CHO cell membrane expressing prostanoid receptor subtype, [3H]-PGE2 competition; conditions: CHO cell membrane fraction, 2.5 nM [3H]-PGE2, 1 hour at room temperature, pH6.0
T1 construct: expressed in transfected cells; host or cells: CHO cells, membrane fraction
T1 sequence (P30557 1-365): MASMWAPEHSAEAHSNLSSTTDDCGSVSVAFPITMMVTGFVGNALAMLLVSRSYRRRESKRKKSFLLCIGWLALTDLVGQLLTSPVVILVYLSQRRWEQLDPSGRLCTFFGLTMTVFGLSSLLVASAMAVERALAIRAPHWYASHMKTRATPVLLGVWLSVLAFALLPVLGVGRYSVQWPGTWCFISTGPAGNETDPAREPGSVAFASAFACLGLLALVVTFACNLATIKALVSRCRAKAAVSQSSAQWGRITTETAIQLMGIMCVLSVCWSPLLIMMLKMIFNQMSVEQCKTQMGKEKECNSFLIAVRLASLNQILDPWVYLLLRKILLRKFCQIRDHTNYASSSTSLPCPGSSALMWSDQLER
Procedure: (§1) For example, in a standard laboratory test, such effects of the compound of the present invention were confirmed by binding assay using cell expressing the prostanoid receptor subtypes. (i) Binding assay using cell expressing the prostanoid receptor subtypes The preparation of membrane fraction was carried out according to the method of Sugimoto et al (J. Biol. Chem., 267, 6463-6466 (1992)), using CHO cell expressing prostanoid receptor subtype (mouse EP1, EP2, EP3, and EP4, and human IP).
(§2) The reaction solution (200 μl) containing membrane fraction (0.5 mg/ml), [^3H]-PGE2 was incubated for 1 hour at room temperature. The reaction was terminated by addition of 3 ml of ice-cold buffer. The mixture was rapidly filtered under reduced pressure through a glass filter (GF/B). The radioactivity associated with the filter was measured by liquid scintillation counter.
(§3) Kd and Bmax values were determined from Scatchard plots [Ann. N.Y. Acad. Sci., 51, 660 (1949)]. Non-specific binding was calculated as the amount bound in the presence of an excess (2.5 μM) of unlabeled PGE2. In the experiment for competition of specific [^3H]-PGE2 binding by the compounds of the present invention, [^3H]-PGE2 was added at a concentration of 2.5 nM and the compound of the present invention was added at various concentrations. The following buffer was used in all reactions. Buffer: 10 mM potassium phosphate (pH6.0), 1 mM EDTA, 10 mM MgCl2, 0.1 M NaCl
(§4) The dissociation constant Ki (μM) of each compound was calculated by the following equation.

mouse EP1 = target: T2, mouse EP1 (Mus musculus, UniProt P35375); experiment: as above; conditions: CHO cell membrane fraction, 2.5 nM [3H]-PGE2, 1 hour at room temperature, pH6.0
T2 construct: expressed in transfected cells; host or cells: CHO cells, membrane fraction
T2 sequence (P35375 1-405): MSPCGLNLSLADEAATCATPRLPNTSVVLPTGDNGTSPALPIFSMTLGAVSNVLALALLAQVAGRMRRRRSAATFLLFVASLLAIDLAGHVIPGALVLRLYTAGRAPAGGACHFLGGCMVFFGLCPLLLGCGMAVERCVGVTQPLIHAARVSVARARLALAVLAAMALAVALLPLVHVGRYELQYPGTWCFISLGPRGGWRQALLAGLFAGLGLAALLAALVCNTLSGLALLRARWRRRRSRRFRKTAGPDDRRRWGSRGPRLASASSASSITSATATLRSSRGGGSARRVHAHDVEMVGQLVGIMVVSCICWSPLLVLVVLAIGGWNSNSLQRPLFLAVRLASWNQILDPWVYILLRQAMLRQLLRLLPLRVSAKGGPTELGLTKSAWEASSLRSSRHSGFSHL
Procedure: as §1, §2, §3, §4

mouse EP4 = target: T3, mouse EP4 (Mus musculus, UniProt P32240); experiment: as above; conditions: CHO cell membrane fraction, 2.5 nM [3H]-PGE2, 1 hour at room temperature, pH6.0
T3 construct: expressed in transfected cells; host or cells: CHO cells, membrane fraction
Procedure: as §1, §2, §3, §4

rat = experiment: Toxicity: maximum tolerance dose by i.v. route in rat; format: in vivo
Procedure: The toxicity of the compounds of the formula (I) of the present invention is very low and therefore, it is confirmed that these compounds are safe for use as medicine. For example, the maximum tolerance dose of the compound of Example 1 by i.v. route in rat was 30 mg/kg body weight or more.

T3 sequence (P32240 whole entry): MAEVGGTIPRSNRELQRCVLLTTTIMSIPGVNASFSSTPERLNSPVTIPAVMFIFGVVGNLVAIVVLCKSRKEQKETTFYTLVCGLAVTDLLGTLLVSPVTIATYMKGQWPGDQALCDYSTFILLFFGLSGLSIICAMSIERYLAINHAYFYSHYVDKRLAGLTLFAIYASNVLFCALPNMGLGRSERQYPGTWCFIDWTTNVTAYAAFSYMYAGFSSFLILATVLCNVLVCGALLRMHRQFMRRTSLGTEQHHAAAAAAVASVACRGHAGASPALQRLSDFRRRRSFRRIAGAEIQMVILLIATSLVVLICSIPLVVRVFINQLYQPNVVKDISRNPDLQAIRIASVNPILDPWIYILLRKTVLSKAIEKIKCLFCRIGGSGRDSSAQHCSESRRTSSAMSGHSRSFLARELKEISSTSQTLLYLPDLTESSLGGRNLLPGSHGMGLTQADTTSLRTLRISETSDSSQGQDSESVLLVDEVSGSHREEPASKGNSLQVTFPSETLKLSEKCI

Row | Compound | Ki (EP3α) | Ki (mouse EP1) | Ki (mouse EP4) | maximum tolerance dose (rat)
1 | CCCOCc1cccc(C[C@H](O)/C=C/[C@H]2[C@H](O)CC(=O)[C@@H]2CCSCCCC(=O)O)c1 [3 (5), (11α,13E,15α)-9-oxo-11,15-Dihydroxy-16-(3-n-propyloxymethylphenyl)-17,18,19,20-tetranor-5-thiaprost-13-enoic Acid] | 570 nM | > 10000 nM | 15 nM | –
2 | COCc1cccc(C[C@H](O)/C=C/[C@H]2[C@H](O)CC(=O)[C@@H]2CCSCCCC(=O)O)c1 [Example 3, (11α,13E,15α)-9-oxo-11,15-Dihydroxy-16-(3-methoxymethylphenyl)-17,18,19,20-tetranor-5-thiaprost-13-enoic Acid] | 840 nM | > 10000 nM | 3.8 nM | –
3 | (11α,13E,15α)-9-oxo-11,15-Dihydroxy-16-(3-ethoxymethylphenyl)-17,18,19,20-tetranor-5-thiaprost-13-enoic Acid [3 (4)] | 500 nM | > 10000 nM | 10 nM | –
4 | COCc1cccc(C[C@H](O)/C=C/[C@H]2[C@H](O)CC(=O)[C@@H]2CCSCCCC(=O)OC)c1 [Example 1, (11α,13E,15α)-9-oxo-11,15-Dihydroxy-16-(3-methoxymethylphenyl)-17,18,19,20-tetranor-5-thiaprost-13-enoic Acid·Methyl Ester] | – | – | – | ≥ 30 mg/kg body weight
5 | COCc1cccc(C[C@H](O)/C=C/[C@@H]2[C@@H](CCSCCCC(=O)O)[C@H](F)C[C@H]2O)c1 [3 (3), (9β,11α,13E,15α)-9-Fluoro-11,15-dihydroxy-16-(3-methoxymethylphenyl)-17,18,19,20-tetranor-5-thiaprost-13-enoic Acid] | 1500 nM | > 10000 nM | 18 nM | –
6 | Cc1cc(C[C@H](O)/C=C/[C@H]2[C@H](O)CC(=O)[C@@H]2CCSCCCC(=O)O)ccc1O [3 (1), (11α,13E,15α)-9-oxo-11,15-Dihydroxy-16-(3-methyl-4-hydroxyphenyl)-17,18,19,20-tetranor-5-thiaprost-13-enoic Acid] | 2900 nM | > 10000 nM | 2.4 nM | –
7 | COCc1cccc(C[C@H](O)/C=C/[C@@H]2[C@@H](CCSCCCC(=O)O)[C@H](Cl)C[C@H]2O)c1 [3 (2), (9β,11α,13E,15α)-9-Chloro-11,15-dihydroxy-16-(3-methoxymethylphenyl)-17,18,19,20-tetranor-5-thiaprost-13-enoic Acid] | > 10000 nM | > 10000 nM | 7.9 nM | –
8 | COCc1cccc(C[C@H](O)CC[C@H]2[C@H](O)CC(=O)[C@@H]2CCSCCCC(=O)O)c1 [Example 6, (11α,15α)-9-oxo-11,15-Dihydroxy-16-(3-methoxymethylphenyl)-17,18,19,20-tetranor-5-thiaprostanoic Acid] | 460 nM | > 10000 nM | 6.2 nM | –
